A short description of the series: gradient 5% acetonitrile 3 min, to 50% in 2 min, to 85% in 15 min, held 3 min, 100 µL/min. Conditions: column: Zorbax Extend-C18 2.1 x 50 mm; eluents: water / acetonitrile, 0.1% formic acid. The essentials: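 Mixtures of ~100 pure standards were chromatographed on a Zorbax Extend-C18 column (2.1 × 50 mm, 1.8 μm) at 100 μL/min using water and acetonitrile, each with 0.1% formic acid. Detection used a quadrupole time-of-flight mass spectrometer in positive and negative ionization mode, and data collection spanned 3 months. Retention time was obtained from adduct peaks picked computationally and each checked manually.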
As for `Cc1cc(Cl)ccc1NC(=O)C1CCCN(c2nnc(C)c3c(C)n(-c4ccccc4)nc23)C1` (configuration not stated), the RP-LC retention time was 803 s.

The compound `Cc1nn(-c2ccccc2)c(C)c1C=NN1CCN(Cc2ccccc2)CC1` showed an RP-LC retention time of 739 s.

`COc1cc(-c2noc(C3CC(=O)N(c4ccc(C)cc4)C3)n2)cc(OC)c1OC` (configuration not stated) registered an RP-LC retention time of 902 s.

For `CCn1nccc1C(=O)N1CCN(c2ncnc3c2CCC3)CC1`, the RP-LC retention time stood at 556 s.

As for `O=C(NCc1cccs1)C1CCN(c2cnn(Cc3ccccc3)c(=O)c2)CC1`, the RP-LC retention time amounted to 742 s.

`Fc1ccc(C2Cn3nnc(-c4nc(-c5cccnc5)no4)c3CO2)cc1` (configuration not stated) displayed an RP-LC retention time of 896 s.

Take `COc1ccc(CNC(=O)C2CCCN(S(=O)(=O)c3ccc(OC)c(Cl)c3)C2)cc1` (configuration not stated): the RP-LC retention time is 917 s.

Compound `CC1(C(=O)NCc2ccccc2)Cn2cnc(C(=O)NCc3ccc(Cl)cc3)c2C(=O)N1C1CC1` (configuration not stated) gave an RP-LC retention time of 789 s.

`COc1cccc(-c2cc3c(=O)n(CC(O)c4ccc(C(C)C)cc4)ccn3n2)c1` (configuration not stated) yielded an RP-LC retention time of 1060 s.

The compound `COc1ccc(C2C(C(=O)NCc3ccccc3OC)c3ccccc3C(=O)N2C)cc1` (configuration not stated) displayed an RP-LC retention time of 864 s.

Consider `COc1ccc(NC(=O)C2CCN(S(=O)(=O)c3c(C)nn(-c4ccccc4)c3C)CC2)cc1OC`, for which the RP-LC retention time is 859 s.

The compound `O=C(Cc1ccc(Cl)cc1)NCCOc1ccccc1` registered an RP-LC retention time of 844 s.

Compound `O=C(Cn1c(=O)oc2ccccc21)N1CC(n2cc(COCc3ccccc3)nn2)C1` had an RP-LC retention time of 773 s.

The compound `N#CCCSc1nnc2sc3ccccc3n12` had an RP-LC retention time of 828 s.

Regarding `Cc1cc(F)ccc1NC(=O)c1c(O)c2cccnc2n(-c2ccc(F)cc2)c1=O`, the RP-LC retention time was 1240 s.

`CC1=C(c2ccccc2)S(=O)(=O)N=C1N1CCCN(C(=O)C2CCCCC2)CC1` displayed an RP-LC retention time of 868 s.

As for `CCc1nc(-c2csc(S(=O)(=O)N3CCCC(C(=O)Nc4cccc(Cl)c4C)C3)c2)no1` (configuration not stated), the RP-LC retention time amounted to 1080 s.

Take `O=C(c1cccc(F)c1)N1CCN(c2cc(-c3cccs3)[nH]n2)CC1`: the RP-LC retention time was 774 s.

In turn, `CCc1cccc(NC(=O)C2CCCN(c3cc(=O)n(C)c(=O)n3C)C2)c1` (configuration not stated) gave an RP-LC retention time of 794 s.

In turn, `O=C(Cc1ccc(S(=O)(=O)N2CCN(c3ccccn3)CC2)s1)N1CCOCC1` registered an RP-LC retention time of 1260 s.

The compound `CCn1cnc(S(=O)(=O)N2CCC(C(=O)NCc3cccc(C)c3)CC2)c1` came in with an RP-LC retention time of 721 s.

`CC1=C(c2ccc(F)cc2)S(=O)(=O)N=C1N1CCC(C(=O)NC(C)C)CC1` yielded an RP-LC retention time of 741 s.

Compound `CCCNS(=O)(=O)c1cc(-c2c(CC)noc2NC(C)=O)ccc1C` returned an RP-LC retention time of 747 s.

As to `O=C(Nc1nc2c(s1)CN(C(=O)c1cc(-c3ccccc3)on1)CC2)C1CCCO1` (configuration not stated), the RP-LC retention time is 785 s.

`CC1CCc2c(N3CCC(O)CC3)c(F)cc3c(=O)c(C(=O)O)cn1c23` (configuration not stated) returned an RP-LC retention time of 709 s.

`CSc1cccc(NC(=O)Cn2nc(-n3cccc3)c3c(C)cc(C)nc32)c1` had an RP-LC retention time of 1080 s.

`O=C(NCCc1csc(-c2cccc(F)c2)n1)C1CCCC1`: the RP-LC retention time is 832 s.

`CCOc1ccccc1NS(=O)(=O)c1c(C(=O)OC)sc2cccc(F)c12` displayed an RP-LC retention time of 974 s.

`O=C(Nc1ccccc1-c1nc2ccccc2[nH]1)c1ccccc1Cl` gave an RP-LC retention time of 871 s.

Turning to `CCn1cc(C(=O)NCCC2=CCCCC2)c2nn(-c3ccccc3)c(=O)c-2c1`, the RP-LC retention time came out at 1020 s.

In turn, `O=C(NCCC1=CCCCC1)c1cccc(CN2C(=O)C3CCCN3C(=O)c3ccccc32)c1` (configuration not stated) came in with an RP-LC retention time of 890 s.

`CC(CCc1ccco1)NC(=O)C1CCc2nc(N3CCCC3)ncc2C1` (configuration not stated) had an RP-LC retention time of 620 s.
